Key:
[1] = test system: prostaglandin E2; experiment: Inhibition of prostaglandin E2 production in LPS-stimulated Raw 264.7 cells (enzyme immunometric assay); type: cell-based, murine; conditions: for PGE2: 1 μg/ml LPS, 16 hours
Procedure: To investigate whether kaurane diterpene compounds obtained in Example 1 can inhibit the production of prostaglandin, which induces inflammatory reaction, the present inventors measured the amount of prostaglandin E2 accumulated in the culture medium of LPS-stimulated murine macrophage cells, which were treated with four kaurane diterpene compounds, kamebanin, kamebacetal A, kamebakaurin, or exisanin A.
In detail, Raw 264.7 cells in DMEM medium were seeded to a 96-well plate at a cell density of 1×10^5 cells/well and were incubated for 18 hours. Cyclooxygenase-1, the constitutive rate-determining enzyme of the prostaglandin synthesis was inactivated by incubating for 3 hrs with 500 μM of aspirin and each well was washed two times with PBS (phosphate-buffered saline). To each well were added 1 μg/ml of LPS and 3 μg/ml, 0.3 μg/ml, and 0.03 μg/ml concentrations of kaurane diterpene compounds of the present invention and was incubated for 16 hours. After collecting supernatant by centrifugation, the amount of prostaglandin in the culture medium was quantified by enzyme immunometric assay.

[2] = test system: Bf1-1/A1 mRNA; experiment: TNF-α-induced Bf1-1/A1 mRNA expression, Northern blot, MCF-7 and HT-1080 cells; type: cell-based; conditions: 1, 5, 10 μg/ml, 20 ng/ml TNF-α 3 hours
Procedure: MCF-7 cells (ATCC HTB 22, breast cancer cell line) and HT-1080 cells (ATCC CCL 121, fibroblastoma) were pretreated for 30 minutes with 1 μg/ml, 5 μg/ml, and 10 μg/ml concentrations of four kinds of kaurane diterpene compounds. Thereafter, 20 ng/ml concentrations of TNF-α were treated for three hours to induce the expression of Bf1-1/A1 mRNA. After isolating total RNA from the control and compound-treated cells, the expression of Bf1-1/A1 mRNA was measured by Northern blot analysis. To accomplish this, 20 μg of the total RNA was electrophoresed in the 1% agarose gel containing 2.2M concentrations of formaldehyde. After that, RNA was transferred to nylon membrane and fixed using ultraviolet. The nylon membrane was hybridized with ^32P-labeled probe, which was represented by SEQ. ID NO. 2 and specific to the cDNA of Bf1-1/A1 gene. After washing unbound probe with phosphate buffered saline (PBS) containing sodium dodecyl sulfate (SDS), the membrane was exposed to x-ray film.

[3] = test system: Bax; experiment: Bax expression, Western blot, MCF-7 and HT-1080 cells; type: cell-based; conditions: 1, 5, 10 μg/ml, 20 ng/ml TNF-α 3 hours
Procedure: (§1) MCF-7 cells and HT-1080 cells were pretreated for 30 minutes with 1 μg/ml, 5 μg/ml, and 10 μg/ml concentrations of four kinds of kaurane diterpene compounds, respectively. After that, 20 ng/ml concentrations of TNF-α were treated for three hours to induce the expression of cIAP-1 and cIAP-2 proteins. Protein extract was prepared from cultured cells using buffer solution for protein extraction consisting of 50 mM Tris-HCL (pH 7.5), 1% Nonidet P40, 150 mM NaCl, 1 mM EDTA, 1 mM phenylmethyl sulfonyl fluoride, […]. 50 μg of protein extract of the control and compound-treated groups was applied to the SDS-polyacrylamide gel electrophoresis. After transferring the proteins into the polyvinylidene difluoride membrane, the membrane was blocked with 5% skim milk for three hours, and were reacted with antibodies against cIAP-1, cIAP-2, Bcl-2, and Bax proteins (Santa Cruz Biochemicals). The membrane was washed with PBS and was reacted with secondary antibody conjugated with horseradish peroxidase. After washing again with PBS, the protein was detected by ECL system (Amersham Pharmacia Biotec).

[4] = test system: COX-2 protein; experiment: COX-2 protein expression, Western blot, LPS-stimulated Raw 264.7 cells; type: cell-based, murine; conditions: 0.1-3 μg/ml, LPS 1 μg/ml, 18 hours
Procedure: (§2) Raw 264.7 murine macrophage cells were treated simultaneously with 1 μg/ml concentrations of LPS and 0.1 μg/ml, 0.3 μg/ml, 1 μg/ml, and 3 μg/ml concentrations of kamebakaurin and were incubated for 18 hours at 37° C. in a 5% CO2 incubator. After preparing total cell lysates from cultured cells using buffer solution for protein extraction of the Example <7-2>, the expression pattern of proteins was assessed by Western blot analysis.

[5] = test system: TNF-α; experiment: Inhibition of TNF-α production in LPS-stimulated Raw 264.7 cells (enzyme immunometric assay); type: cell-based, murine; conditions: for TNF-α: 1 μg/ml LPS, 16 hours
Procedure: To investigate whether kaurane diterpene compounds obtained in Example 1 can inhibit effectively the production of tumor necrosis factor-α (TNF-α), one of the inflammatory mediator, which confers cytotoxic effect and induces the production of prostaglandin and cytokines, the present inventors measured the amount of TNF-α accumulated in the culture medium of LPS-stimulated murine macrophage cells, which were treated with four kaurane diterpene compounds, kamebanin, kamebacetal A, kamebakaurin, or exisanin A.
In detail, Raw 264.7 cells in DMEM medium were seeded to a 96-well plate at a cell density of 1×10^5 cells/well and were incubated for 3 hours at 37° C. in a 5% CO2 incubator. To each well were added 1 μg/ml of LPS and 3 μg/ml, 0.3 μg/ml, and 0.03 μg/ml concentrations of kaurane diterpene compounds of the present invention and was incubated for 16 hours. After collecting supernatant by centrifugation, the amount of TNF-α in the culture medium was quantified by enzyme immunometric assay.

[6] = test system: iNOS protein; experiment: iNOS protein expression, Western blot, LPS-stimulated Raw 264.7 cells; type: cell-based, murine; conditions: LPS 1 μg/ml, 18 hours
Procedure: as §2

[7] = test system: cIAP-2; experiment: TNF-α-induced cIAP-2 protein expression, Western blot, MCF-7 and HT-1080 cells; type: cell-based; conditions: 1, 5, 10 μg/ml, 20 ng/ml TNF-α 3 hours
Procedure: as §1

[8] = test system: Bcl-2; experiment: Bcl-2 expression, Western blot, MCF-7 and HT-1080 cells; type: cell-based; conditions: 1, 5, 10 μg/ml, 20 ng/ml TNF-α 3 hours
Procedure: as §1

[9] = Mus musculus, RAW264.7, LPS-stimulated Raw 264.7 cells

IC50 [1, 9]: 2.63 µM
IC50 [5, 9]: 0.53 µM
SMILES: C=C1C(=O)[C@@]23[C@H](O)C[C@@H]4C(C)(C)CC[C@H](O)[C@@]4(CO)[C@@H]2CC[C@@H]1[C@H]3O [Kamebakaurin, kamebakaurin]
PGE2 ([1]; 0.03 μg/ml compound): 10.7 ± 1.2 ng/mL
PGE2 ([1]; 0.3 μg/ml compound): 9.2 ± 0.2 ng/mL
Inhibition rate (%) of prostaglandin E2 production ([1]; 3 μg/ml compound): 95.1%
PGE2 ([1]; 3 μg/ml compound): 1.8 ± 0.4 ng/mL
inhibition at 0.03 µg/mL ([1]; Mus musculus, RAW264.7, 0.03 μg/ml compound, read-out: Inhibition rate (%) of prostaglandin E2 production): -7.1%
inhibition at 0.3 µg/mL ([1]; Mus musculus, RAW264.7, 0.3 μg/ml compound, read-out: Inhibition rate (%) of prostaglandin E2 production): 9.7%
inhibition at 3 µg/mL ([1]; Mus musculus, RAW264.7, 3 μg/ml compound, read-out: Inhibition rate (%) of prostaglandin E2 production): ~95%
Expression of Bf1-1/A1 mRNA induced by TNF-α [2]: inhibited
Expression of Bax [3]: not inhibited
Expression of COX-2 protein [4]: suppressed dose-dependently
TNF-α ([5]; 0.03 μg/ml compound): 1407.0 ± 255.6 pg/mL
TNF-α ([5]; 0.3 μg/ml compound): 654.4 ± 29.4 pg/mL
TNF-α ([5]; 3 μg/ml compound): 29.6 ± 5.3 pg/mL
inhibition at 0.03 µg/mL ([5]; Mus musculus, RAW264.7, 0.03 μg/ml compound, read-out: Inhibition rate (%) of TNF-α production): 15.9%
inhibition at 0.3 µg/mL ([5]; Mus musculus, RAW264.7, 0.3 μg/ml compound, read-out: Inhibition rate (%) of TNF-α production): 61.3%
inhibition at 3 µg/mL ([5]; Mus musculus, RAW264.7, 3 μg/ml compound, read-out: Inhibition rate (%) of TNF-α production): 99.2%
Expression of iNOS protein ([6]; 3 μg/ml): completely suppressed
Expression of iNOS protein ([6]; 0.1-3 μg/ml): suppressed dose-dependently
Expression of cIAP-2 protein induced by TNF-α [7]: inhibited
Expression of Bcl-2 [8]: not inhibited
